One test has as its target GRB7 SH2 domain (Homo sapiens, UniProt Q14451). Briefly: FP saturation binding assay.
In a further test the target is T1, PLCG1-C SH2 domain (Homo sapiens, UniProt P19174).
T1 construct: The 6X His-tagged SH2 domain proteins used in the assay, PLCG1-C, SHC4, VAV2; thioredoxin; made in house; host or cells: E. coli BL21(DE3)pLysS
T1 sequence (P19174 668-756 limits assumed): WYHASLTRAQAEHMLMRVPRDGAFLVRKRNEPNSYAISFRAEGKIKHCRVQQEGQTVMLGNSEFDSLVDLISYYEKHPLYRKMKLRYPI
Briefly: biochemical. Format: binding. As to conditions: protein PLCG1-C; high-confidence ErbB interactions; mean of replicate hits.

Test [1] concerns the target PIK3R2-NC tandem SH2 domains (Homo sapiens, UniProt O00459). The experiment in a line: FP saturation binding assay.
In test [2] the test system is 93 human SH2 domains and 2 phosphotyrosine binding (PTB) domains. Briefly: FP saturation binding assay, whole domain panel (protein named per line or not at all). The method, then:
(See Figure 1A) Rhodamine-labeled peptides were dissolved in assay buffer (20 mM HEPES, 100 mM KCl, 0.1% Tween-20, 5 mM DTT, pH 7.8), diluted to a concentration of 20 nM, and plated into black 384-well plates (Corning, Corning, NY) at 5 µL/well using a Perkin Elmer EP3 pipetting workstation (V&P Scientific, Inc., San Diego, CA). SH2, PTB, and thioredoxin control proteins were plated into the first column of 2 mL 96-well plates (Corning) at a concentration of 20 µM and serially diluted 1∶2 into freezing buffer (300 mM NaCl, 50 mM Na2PO4, pH 8, 20% glycerol v/v) eleven times using a Tecan Freedom EVO 100 workstation (Tecan, Männedorf, Switzerland). For the interaction assay, 5 µL of each of the twelve protein concentrations was added to the peptide-containing 384-well plates via the EP3 resulting in a protein dilution range of 0.002–10 µM and a final volume of 10 µL; peptide concentration was fixed at 10 nM. Peptide/protein samples were incubated for 20 minutes at room temperature in the dark and fluorescence polarization (FP) was measured in an Analyst GT multimode reader (Molecular Devices, Sunnyvale, CA) with excitation and emission wavelengths of 530 nm and 555 nm, respectively. Experimental values were output as millipolarization (mP) units and imported into MATLAB (The MathWorks, Inc., Natick, MA) in which equation (1) was used to determine dissociation constants (KDs) for each protein/peptide pairing by least squares nonlinear regression. [drawing 1] (1)
To scale up the number of interaction measurements while minimizing variation introduced by human intervention, we utilized an automated robotic platform (Figure 1A; see experimental procedures and Supplementary Methods) to transfer, incubate, and measure the fluorescence polarization (FP) induced from interactions of a titration series of SH2 domains with synthetic rhodamine-labeled ErbB phosphopeptides. Experimental values were output as millipolarization (mP) units and equation (1) was used to fit apparent midpoint dissociation constants (KDs) for each protein/peptide pair using non-linear regression (see experimental procedures).
For this interaction analysis, we synthesized and queried the interaction of phosphopeptides corresponding to 89 of 92 ErbB family intracellular tyrosines with 93 SH2 domains. Because nine peptide sequences share 100% identity between the receptors in the 4 to 7 amino acids C-terminal to the phosphorylated tyrosine, our peptide set consisted of 81 phosphopeptides corresponding to the 89 unique tyrosine containing sequences (Table S2). This peptide set represents a 50% increase over the three PM studies performed to date. We were therefore able to obtain a more systematic and unbiased view of the relative SH2 domain recruitment potential of each receptor. Although most ErbB receptor auto-phosphorylation sites have been detected frequently by mass spectrometry because of their high relative modification stoichiometry, non-auto-phosphorylation sites have been reported less frequently in the literature (Table S3). We reasoned that many physiologically relevant and uncharacterized ErbB tyrosines of low phosphorylation stoichiometry may exist and that our comprehensive interaction analysis might implicate their importance in mediating physiological interactions. We tested the majority of interactions (7099/8160 (87.0%); Figure S3) three or more times and reported standard error for all interactions that were detected in at least three FP runs (Table S4). […] Analysis of this polarization data may be useful for inferring how SH2 proteins bind to different peptide sequences. Larger proteins and proteins binding closer to the N-terminal rhodamine tag of a given peptide would be expected to induce higher maximal polarization (the calculated maximal polarization value at infinite protein concentration) than proteins binding farther from the tag. In addition to phosphopeptides, we queried a representative set of 27 non-phosphopeptides against the entire domain set. […]

For a further test, the target named is SH2 and PTB domains. Particulars: ref Kaushansky et al. Mol Biosys 2008, cited from earlier work. From the text: Supplement pone.0044471.s022.xlsx, sheet "Most recent PM interactions" | column: Kd || Supplement pone.0044471.s022.xlsx, sheet "All original PM interactions" | column: Kd

Where two headings read alike, the source gives them in different places. Residues, ends and D or L forms follow the SMILES beside them.

What is called Kd is the constant that tells how readily two partners part at equilibrium.

Sequence of GRB7 SH2 domain (Q14451 431-527 limits assumed): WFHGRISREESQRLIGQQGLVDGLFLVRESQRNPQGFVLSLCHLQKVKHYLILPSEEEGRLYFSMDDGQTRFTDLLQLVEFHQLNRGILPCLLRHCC
Sequence of PIK3R2-NC tandem SH2 domains (O00459 330-716 limits assumed): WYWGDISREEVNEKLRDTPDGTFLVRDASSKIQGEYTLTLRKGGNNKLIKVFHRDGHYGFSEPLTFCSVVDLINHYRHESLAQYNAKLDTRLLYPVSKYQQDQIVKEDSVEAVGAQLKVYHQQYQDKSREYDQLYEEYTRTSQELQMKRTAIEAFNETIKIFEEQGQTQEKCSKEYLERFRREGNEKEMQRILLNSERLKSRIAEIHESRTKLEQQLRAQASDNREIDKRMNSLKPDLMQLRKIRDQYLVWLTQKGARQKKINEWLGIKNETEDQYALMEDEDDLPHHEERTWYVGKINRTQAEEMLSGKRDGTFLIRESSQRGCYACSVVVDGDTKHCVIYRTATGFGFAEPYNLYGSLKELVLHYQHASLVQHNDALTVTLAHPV

`CSCC[C@H](NC(=O)[C@H](Cc1ccc(O)cc1)NC(=O)[C@H](CCC(=O)O)NC(=O)[C@H](Cc1ccc(OP(=O)(O)O)cc1)NC(=O)[C@H](CCC(=O)O)NC(=O)[C@H](CCC(=O)O)NC(=O)[C@H](CC(=O)O)NC(=O)[C@@H](N)CCC(=O)O)C(=O)N[C@@H](CC(N)=O)C(=O)N[C@@H](CCCNC(=N)N)C(=O)N[C@@H](CCCNC(=N)N)C(=O)N[C@@H](CCCNC(=N)N)C(=O)N[C@@H](CC(=O)O)C(=O)O` [ErbB3 pY1197] (HELM PEPTIDE1{E.D.E.E.[O=C([C@H](Cc1ccc(OP(=O)(O)O)cc1)N[*:1])[*:2]].E.Y.M.N.R.R.R.D}$$$$V2.0) yielded a Kd on GRB7 SH2 domain (KD for GRB7, FP saturation assay) of at most 100 nM.

Consider `CC(C)C[C@H](NC(=O)[C@H](Cc1ccc(OP(=O)(O)O)cc1)NC(=O)[C@H](CC(C)C)NC(=O)[C@@H]1CCCN1C(=O)[C@H](CCC(=O)O)NC(=O)[C@@H](N)CC(N)=O)C(=O)N[C@@H](CC(N)=O)C(=O)N[C@H](C(=O)N[C@@H](Cc1ccccc1)C(=O)N[C@@H](C)C(=O)N[C@@H](CC(N)=O)C(=O)N[C@H](C(=O)N[C@@H](CC(=O)O)C(=O)O)[C@@H](C)O)[C@@H](C)O` [ErbB4 1208 13-mer] (HELM PEPTIDE1{N.E.P.L.[O=C([C@H](Cc1ccc(OP(=O)(O)O)cc1)N[*:1])[*:2]].L.N.T.F.A.N.T.D}$$$$V2.0), for which the Kd came to 5110 nM at PLCG1-C SH2 domain; 8960 nM on GRB7 SH2 domain (Mean KD, protein GRB7, high-confidence ErbB interactions, mean of replicate hits); 11300 nM in test [1].

In the case of “IGSQpYLLNWCVQd [ErbB1 pY813, N-terminally rhodamine-labeled 13-mer phosphopeptide]”, the “interaction with the SH2/PTB domain panel” value in test [2] (KD <= 20 µM counted as interaction) is listed as “reproducibly interacted at high affinity with many SH2 domains”. Moreover, in test [2] (high-confidence interactions (Table S11, Figure S14)), the “SH2 domains found to interact” value is given as “interacted with tensin family SH2 domains”. In addition, the Kd on SH2 and PTB domains (protein ABL2) is 200 nM; on SH2 and PTB domains (protein GRB10) it was 350 nM; at SH2 and PTB domains (protein ITK) it was 310 nM; at SH2 and PTB domains (protein NCK2), 200 nM; at SH2 and PTB domains (protein PIK3R1-C), 1850 nM; at SH2 and PTB domains (protein PIK3R1-NC), 1820 nM. Moreover, the Kd at SH2 and PTB domains (protein PIK3R3-NC) was 1870 nM; on SH2 and PTB domains (protein RASA1-C), 1950 nM; at SH2 and PTB domains (protein RASA1-NC) it was 160 nM; at SH2 and PTB domains (protein SH2D1B), 1600 nM; at SH2 and PTB domains (protein SH2D3C), 50 nM; on SH2 and PTB domains (protein SHB), 280 nM. The Kd at SH2 and PTB domains (protein SHE) is 1380 nM; at SH2 and PTB domains (protein SHF), 1060 nM; on SH2 and PTB domains (protein SRC), 80 nM; on SH2 and PTB domains (protein SYK-NC), 240 nM; at SH2 and PTB domains (protein TENC1), 1150 nM; at SH2 and PTB domains (protein TNS3), 1890 nM. Besides, the Kd is 370 nM at SH2 and PTB domains (protein VAV1); 470 nM on SH2 and PTB domains (protein VAV2); 960 nM at SH2 and PTB domains (protein VAV3); 22 nM on SH2 and PTB domains (protein YES1).
